Test results from patent publication US20210122730A1, “GLUCOCORTICOID RECEPTOR MODULATORS” (ORIC Pharmaceuticals, Inc., priority 2017, published 2021).

How the values were obtained:
GR = biological target: T1, GR (Homo sapiens, UniProt P04150); assay: In Vitro GR Luciferase Reporter Assay (antagonist mode, CHO-K1-GR-MMTV-Luc reporter cells); assay type: cell-based
T1 construct: expressed in transfected cells; host or cells: CHO-K1
T1 sequence (P04150 1-777): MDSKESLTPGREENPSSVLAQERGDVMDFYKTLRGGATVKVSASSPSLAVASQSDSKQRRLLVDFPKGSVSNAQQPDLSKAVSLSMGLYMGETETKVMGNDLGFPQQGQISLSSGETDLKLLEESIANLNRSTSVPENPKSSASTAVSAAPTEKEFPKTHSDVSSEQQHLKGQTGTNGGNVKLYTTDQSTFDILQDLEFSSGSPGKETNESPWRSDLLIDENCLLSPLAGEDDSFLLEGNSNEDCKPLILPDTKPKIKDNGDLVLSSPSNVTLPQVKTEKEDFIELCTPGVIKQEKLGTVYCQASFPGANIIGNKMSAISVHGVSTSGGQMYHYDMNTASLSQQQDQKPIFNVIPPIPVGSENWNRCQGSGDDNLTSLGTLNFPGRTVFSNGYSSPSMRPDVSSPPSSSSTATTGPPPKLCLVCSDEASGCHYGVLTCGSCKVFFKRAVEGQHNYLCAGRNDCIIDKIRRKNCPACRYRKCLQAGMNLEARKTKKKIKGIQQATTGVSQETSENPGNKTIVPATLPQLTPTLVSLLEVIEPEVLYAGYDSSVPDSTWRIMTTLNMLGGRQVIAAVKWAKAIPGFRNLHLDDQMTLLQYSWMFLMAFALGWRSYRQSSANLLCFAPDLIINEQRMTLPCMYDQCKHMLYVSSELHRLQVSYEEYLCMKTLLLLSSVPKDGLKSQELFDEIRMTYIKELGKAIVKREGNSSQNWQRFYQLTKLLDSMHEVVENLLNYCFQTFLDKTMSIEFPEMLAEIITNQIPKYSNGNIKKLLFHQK
How it was run: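 Antagonist mode: compounds (8 serial 1:5 dilutions) added to GR-MMTV-luciferase CHO-K1 reporter cells co-exposed to 10 nM dexamethasone final, in phenol red-free DMEM plus 10% CSS. After roughly 18-24 h at 37° C, OneGlo luminescence read and IC50 calculated.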

CYP2C8 = biological target: T2, CYP2C8 (Homo sapiens, UniProt P10632); assay: CYP Inhibition Assay (CYP2C8, human liver microsomes, paclitaxel substrate); assay type: in vitro ADME; details: pH 7.4; pooled human liver microsomes 0.1 mg/mL, probe substrate paclitaxel
T2 construct: Pooled human microsomes were obtained from Sekisui XenoTech, KS; tissue Sekisui XenoTech, KS; host or cells: pooled human liver microsomes
T2 sequence (P10632 1-490): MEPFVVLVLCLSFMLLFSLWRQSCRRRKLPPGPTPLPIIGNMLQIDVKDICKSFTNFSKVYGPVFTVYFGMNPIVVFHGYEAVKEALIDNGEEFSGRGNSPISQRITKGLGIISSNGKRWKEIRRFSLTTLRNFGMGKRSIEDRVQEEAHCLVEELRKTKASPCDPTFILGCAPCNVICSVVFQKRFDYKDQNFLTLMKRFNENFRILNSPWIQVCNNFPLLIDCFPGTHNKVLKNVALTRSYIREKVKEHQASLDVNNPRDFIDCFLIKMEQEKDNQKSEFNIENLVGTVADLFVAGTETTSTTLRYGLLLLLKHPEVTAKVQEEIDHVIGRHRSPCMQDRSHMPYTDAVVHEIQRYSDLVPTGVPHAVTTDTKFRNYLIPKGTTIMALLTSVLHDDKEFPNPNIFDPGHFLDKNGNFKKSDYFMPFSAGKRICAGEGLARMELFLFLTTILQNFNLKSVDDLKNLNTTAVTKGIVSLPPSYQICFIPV
Protocol: Example B: CYP Inhibition Assay
Objective: To assess the % inhibition of test compounds against CYP2C8 enzyme in human liver microsomes.
Pooled human microsomes were obtained from Sekisui XenoTech, KS, and were used for in vitro assessment of compound inhibitory potential of the major drug metabolizing human CYP enzymes.
Test compounds were dissolved in DMSO as 10 mM stock solutions and diluted to 200 µM in acetonitrile as working solutions. The total concentrations of DMSO and acetonitrile were 0.02% and 0.5%, respectively, in the assay.
The assay was performed in duplicate in a 96-well plate. The reaction mixture ([…]) containing a final concentration of 0.1 mg/mL pooled human liver microsomes, 50 mM potassium phosphate, pH 7.4 buffer, was re-warmed at 37° C. for 5 minutes. The reaction was initiated with NADPH solution which was at 1 mM final concentration, and carried out for 5 minutes at 37° C. It was terminated by the addition of 3-fold volume of quench solution (1:1 acetonitrile:methanol with 0.1% formic acid and the internal standard of tolbutamide). The sample was vortexed, centrifuged at 4,000 rpm for 15 min at 4° C. The incubation in the presence of vehicle (0.02% DMSO and 0.5% acetonitrile) was used as the enzyme activity control. The analyses of metabolite 6α-hydroxypaclitaxel in supernatant was performed with LC-MS/MS method (Sciex API 4500 Qtrap coupled to a Shimadzu LC-20AD HPLC).
The CYP enzyme activity was determined based on the formation of 6a-hydroxypaclitaxel metabolite. The % inhibition was calculated using this equation: % Inhibition=100×(1−Ainactivator/Avehicle), where Ainactivator is the CYP enzyme activity in the presence of test compound, and Avehicle is the CYP activity in the presence of vehicle.

[1] = antagonist assay with 10 nM Dexamethasone, 18-24 hours
[2] = antagonist mode, 10 nM Dexamethasone

| Structure (SMILES) | IC50 (GR; [1]) | inhibition at 5 min (CYP2C8) | IC50 (GR; [2]) |
| --- | --- | --- | --- |
| CN([C@H]1CCC2=Cc3c(cnn3-c3ccc(F)cc3)C[C@]2(C(=O)c2cc(C(F)(F)F)ccn2)C1)S(=O)(=O)c1cnn(C)n1 [Example 90, N-((4aS,6S)-1-(4-fluorophenyl)-4a-(4-(trifluoromethyl)picolinoyl)-4,4a,5,6,7,8-hexahydro-1H-benzo[f]indazol-6-yl)-N,2-dimethyl-2H-1,2,3-triazole-4-sulfonamide] | ≤ 100 nM | 50 to 75% |  |
| CCN([C@H]1CCC2=Cc3c(cnn3-c3ccc(F)cc3)C[C@]2(C(=O)c2cc(C(F)(F)F)ccn2)C1)S(=O)(=O)c1cnn(C)c1 [Example 91, N-ethyl-N-((4aS,6S)-1-(4-fluorophenyl)-4a-(4-(trifluoromethyl)picolinoyl)-4,4a,5,6,7,8-hexahydro-1H-benzo[f]indazol-6-yl)-1-methyl-1H-pyrazole-4-sulfonamide] | ≤ 100 nM | 50 to 75% |  |
| CN([C@H]1CCC2=Cc3c(cnn3-c3ccc(F)cc3)C[C@]2(C(=O)c2ccc(C3CC3)cn2)C1)S(=O)(=O)c1cnn(C)c1 [Example 93, N-((4aS,6S)-4a-(5-cyclopropylpicolinoyl)-1-(4-fluorophenyl)-4,4a,5,6,7,8-hexahydro-1H-benzo[f]indazol-6-yl)-N,1-dimethyl-1H-pyrazole-4-sulfonamide] | ≤ 100 nM | 75 to 90% |  |
| CN([C@H]1CCC2=Cc3c(cnn3-c3ccc(F)cc3)C[C@]2(C(=O)c2cc(C(F)(F)F)ccn2)C1)S(=O)(=O)C1CCOCC1 [Example 94, N-((4aS,6S)-1-(4-fluorophenyl)-4a-(4-(trifluoromethyl)picolinoyl)-4,4a,5,6,7,8-hexahydro-1H-benzo[f]indazol-6-yl)-N-methyltetrahydro-2H-pyran-4-sulfonamide] | ≤ 100 nM | 50 to 75% |  |
| CN([C@H]1CCC2=Cc3c(cnn3-c3ccc(F)cc3)C[C@]2(C(=O)c2cc(C(F)(F)F)ccn2)C1)S(=O)(=O)c1ccc(Cl)cc1 [Example 99, 4-chloro-N-((4aS,6S)-1-(4-fluorophenyl)-4a-(4-(trifluoromethyl)picolinoyl)-4,4a,5,6,7,8-hexahydro-1H-benzo[f]indazol-6-yl)-N-methylbenzenesulfonamide] | ≤ 100 nM | 25 to 50% |  |
| Cn1cc(C(=O)N(C2CC2)[C@H]2CCC3=Cc4c(cnn4-c4ccc(F)cc4)C[C@]3(C(=O)c3cc(C(F)(F)F)ccn3)C2)cn1 [Example 102, N-cyclopropyl-N-((4aS,6S)-1-(4-fluorophenyl)-4a-(4-(trifluoromethyl)picolinoyl)-4,4a,5,6,7,8-hexahydro-1H-benzo[f]indazol-6-yl)-1-methyl-1H-pyrazole-4-carboxamide] | ≤ 100 nM | 75 to 90% |  |
| CN([C@H]1CCC2=Cc3c(cnn3-c3ccc(F)cc3)C[C@]2(C(=O)c2ccc(C(F)(F)F)cn2)C1)S(=O)(=O)c1cnn(C)n1 [Example 104, N-((4aS,6S)-1-(4-fluorophenyl)-4a-(5-(trifluoromethyl)picolinoyl)-4,4a,5,6,7,8-hexahydro-1H-benzo[f]indazol-6-yl)-N,2-dimethyl-2H-1,2,3-triazole-4-sulfonamide] | 100 to 1000 nM | 50 to 75% |  |
| Cn1ccc(S(=O)(=O)[C@@]2(F)CCC3=Cc4c(cnn4-c4ccc(F)cc4)C[C@]3(C(=O)c3cc(C(F)(F)F)ccn3)C2)n1 [Example 114, ((4aS,6S)-6-Fluoro-1-(4-fluorophenyl)-6-((1-methyl-1H-pyrazol-3-yl)sulfonyl)-1,4,5,6,7,8-hexahydro-4aH-benzo[f]indazol-4a-yl)(4-(trifluoromethyl)pyridin-2-yl)methanone] |  | ≤ 25% | ≤ 100 nM |
| CN([C@H]1CCC2=Cc3c(cnn3-c3ccc(F)cc3)C[C@]2(C(=O)c2ncc(C(F)(F)F)s2)C1)S(=O)(=O)c1cnn(C)c1 [Example 131, N-((4aS,6S)-1-(4-fluorophenyl)-4a-(5-(trifluoromethyl)thiazole-2-carbonyl)-4,4a,5,6,7,8-hexahydro-1H-benzo[f]indazol-6-yl)-N,1-dimethyl-1H-pyrazole-4-sulfonamide] |  | 50 to 75% | ≤ 100 nM |
| CN([C@H]1CCC2=Cc3c(cnn3-c3ccc(F)cc3)C[C@]2(C(=O)c2ncc(C3CC3)s2)C1)S(=O)(=O)c1cnn(C)c1 [Example 134, N-((4aS,6S)-4a-(5-cyclopropylthiazole-2-carbonyl)-1-(4-fluorophenyl)-4,4a,5,6,7,8-hexahydro-1H-benzo[f]indazol-6-yl)-N,1-dimethyl-1H-pyrazole-4-sulfonamide] |  | 75 to 90% | ≤ 100 nM |
| CN([C@H]1CCC2=Cc3c(cnn3-c3ccc(F)cc3)C[C@]2(C(=O)c2ncc(C3CC3)s2)C1)S(=O)(=O)c1ccn(C)n1 [Example 140, N-((4aS,6S)-4a-(5-cyclopropylthiazole-2-carbonyl)-1-(4-fluorophenyl)-4,4a,5,6,7,8-hexahydro-1H-benzo[f]indazol-6-yl)-N,1-dimethyl-1H-pyrazole-3-sulfonamide] |  | 75 to 90% | ≤ 100 nM |
| Cn1ncc(S(=O)(=O)N(C2CC2)[C@H]2CCC3=Cc4c(cnn4-c4ccc(F)cc4)C[C@]3(C(=O)c3cc(C(F)(F)F)ccn3)C2)n1 [Example 142, N-cyclopropyl-N-((4aS,6S)-1-(4-fluorophenyl)-4a-(4-(trifluoromethyl)picolinoyl)-4,4a,5,6,7,8-hexahydro-1H-benzo[f]indazol-6-yl)-2-methyl-2H-1,2,3-triazole-4-sulfonamide] |  | 50 to 75% | ≤ 100 nM |
| CN([C@H]1CCC2=Cc3c(cnn3-c3ccc(F)cc3)C[C@]2(C(=O)c2ncc(C(F)(F)F)s2)C1)S(=O)(=O)c1ccn(C)n1 [Example 144, N-((4aS,6S)-1-(4-fluorophenyl)-4a-(5-(trifluoromethyl)thiazole-2-carbonyl)-4,4a,5,6,7,8-hexahydro-1H-benzo[f]indazol-6-yl)-N,1-dimethyl-1H-pyrazole-3-sulfonamide] |  | 75 to 90% | ≤ 100 nM |
| CCN([C@H]1CCC2=Cc3c(cnn3-c3ccc(F)cc3)C[C@]2(C(=O)c2ncc(C(F)(F)F)s2)C1)S(=O)(=O)c1cnn(C)c1 [Example 153, N-ethyl-N-((4aS,6S)-1-(4-fluorophenyl)-4a-(5-(trifluoromethyl)thiazole-2-carbonyl)-4,4a,5,6,7,8-hexahydro-1H-benzo[f]indazol-6-yl)-1-methyl-1H-pyrazole-4-sulfonamide] |  | 50 to 75% | ≤ 100 nM |
